Key:
Assay in all cases: relative viability (nuclei count vs DMSO), 5 days (fraction); higher = more cells survive
[1] = system: EKVX
In short: (§1)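 For relative viability, nuclei counts in treated wells were divided by those in vehicle wells. Lung cancer cell lines had been pin-tool dosed in 1536-well plates the day after seeding and cultured for 5 days, then fixed and stained in one step (final 0.05% Triton X-100, 1% formaldehyde, 1 ug/ml Hoechst) and imaged at 4×. Doses were one drug alone or a fixed anchor-drug dose plus five library-drug doses (not always all listed) in √10 steps, and values are duplicate-plate medians.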

[2] = system: HCC-366
In short: as §1

[3] = system: NCI-H1650
In short: as §1

[4] = system: NCI-H1975
In short: as §1

[5] = system: LC-2-ad
In short: as §1

[6] = system: SK-LU-1
In short: as §1

[7] = system: HARA
In short: as §1

[8] = system: COR-L 105
In short: as §1

[9] = system: NCI-H596
In short: as §1

[10] = system: RERF-LC-KJ
In short: as §1

[11] = system: NCI-H3122
In short: as §1

[12] = system: LU99A
In short: as §1

Structure (SMILES): O=C(O)CCCCC(CCSCc1ccccc1)SCc1ccccc1 (configuration not stated) [CPI-613] + COc1cc2c(Oc3ccc(NC(=O)C4(C(=O)Nc5ccc(F)cc5)CC4)cc3F)ccnc2cc1OCCCN1CCOCC1 [Foretinib] (partner 0.25 µM)
- relative viability ([1]; first compound 5 µM): 0.83
- relative viability ([1]; first compound 15.81 µM): 0.754
- relative viability ([1]; first compound 50 µM): 0.983
- relative viability ([1]; first compound 158.11 µM): 0.399
- relative viability ([1]; first compound 500 µM): 0.531
- relative viability ([2]; first compound 5 µM): 0.963
- relative viability ([2]; first compound 15.81 µM): 0.962
- relative viability ([2]; first compound 50 µM): 0.989
- relative viability ([2]; first compound 158.11 µM): 0.322
- relative viability ([2]; first compound 500 µM): 0.0079
- relative viability ([3]; first compound 5 µM): 1.35
- relative viability ([3]; first compound 15.81 µM): 0.905
- relative viability ([3]; first compound 50 µM): 1.16
- relative viability ([3]; first compound 158.11 µM): 0.0583
- relative viability ([3]; first compound 500 µM): 0.0222
- relative viability ([4]; first compound 5 µM): 0.943
- relative viability ([4]; first compound 15.81 µM): 0.964
- relative viability ([4]; first compound 50 µM): 0.963
- relative viability ([4]; first compound 158.11 µM): 0.713
- relative viability ([4]; first compound 500 µM): 0.151
- relative viability ([5]; first compound 5 µM): 0.842
- relative viability ([5]; first compound 15.81 µM): 0.796
- relative viability ([5]; first compound 50 µM): 0.957
- relative viability ([5]; first compound 158.11 µM): 0.434
- relative viability ([5]; first compound 500 µM): 0.0582
- relative viability ([6]; first compound 5 µM): 0.875
- relative viability ([6]; first compound 15.81 µM): 0.754
- relative viability ([6]; first compound 50 µM): 0.626
- relative viability ([6]; first compound 158.11 µM): 0.282
- relative viability ([6]; first compound 500 µM): 0.092
- relative viability ([7]; first compound 15.81 µM): 0.778
- relative viability ([7]; first compound 50 µM): 0.923
- relative viability ([7]; first compound 158.11 µM): 0.51
- relative viability ([7]; first compound 500 µM): 0.0068
- relative viability ([8]; first compound 5 µM): 1.11
- relative viability ([8]; first compound 15.81 µM): 1.03
- relative viability ([8]; first compound 50 µM): 1.02
- relative viability ([8]; first compound 158.11 µM): 0.508
- relative viability ([8]; first compound 500 µM): 0.16
- relative viability ([9]; first compound 5 µM): 0.862
- relative viability ([9]; first compound 15.81 µM): 0.969
- relative viability ([9]; first compound 50 µM): 0.813
- relative viability ([9]; first compound 158.11 µM): 0.592
- relative viability ([9]; first compound 500 µM): 0.0375
- relative viability ([10]; first compound 5 µM): 0.878
- relative viability ([10]; first compound 15.81 µM): 0.763
- relative viability ([10]; first compound 50 µM): 0.889
- relative viability ([10]; first compound 158.11 µM): 0.882
- relative viability ([10]; first compound 500 µM): 0.851
- relative viability ([11]; first compound 5 µM): 0.989
- relative viability ([11]; first compound 15.81 µM): 0.895
- relative viability ([11]; first compound 50 µM): 0.971
- relative viability ([11]; first compound 158.11 µM): 0.858
- relative viability ([11]; first compound 500 µM): 0.0742
- relative viability ([12]; first compound 5 µM): 0.83
- relative viability ([12]; first compound 15.81 µM): 0.776
- relative viability ([12]; first compound 50 µM): 0.733
